The NIST ThermoML archive (doi:10.1016/j.fluid.2012.05.003)
± gives the expanded uncertainty stated by the source.

Conditions: Crystal; DTA

## O=C(O)CNCP(=O)(O)O [(phosphonomethyl)glycine]
  Normal melting temperature: 214.7 ± 0.5 °C
